Structures are written as SMILES. Starred links: 1 amine or outer side, 2 acyl side, 3 side chain; linkers in the order of their positions; H or OH if unused. Non-standard residues stand in square brackets, D forms with d. Residues, ends and D or L forms follow the SMILES beside them. *: point of attachment. X4 = O=C(N(Cc1ccc(-c2ccccc2)cc1)N[*:1])[*:2]; azaTyr = O=C(N(Cc1ccc(O)cc1)N[*:1])[*:2]; X3 = O=C(N(Cc1cccc2ccccc12)N[*:1])[*:2]; azaPhe = O=C(N(Cc1ccccc1)N[*:1])[*:2]; azaLeu = CC(C)CN(N[*:1])C(=O)[*:2]; azaPro = O=C(N1CCCN1[*:1])[*:2]; AzaAla = CN(N[*:1])C(=O)[*:2]; X5 = O=C(CC1CNc2ccccc21)*; azaGly = NNC(=O)O

Chain of human GHS-R1a (Q92847 whole entry): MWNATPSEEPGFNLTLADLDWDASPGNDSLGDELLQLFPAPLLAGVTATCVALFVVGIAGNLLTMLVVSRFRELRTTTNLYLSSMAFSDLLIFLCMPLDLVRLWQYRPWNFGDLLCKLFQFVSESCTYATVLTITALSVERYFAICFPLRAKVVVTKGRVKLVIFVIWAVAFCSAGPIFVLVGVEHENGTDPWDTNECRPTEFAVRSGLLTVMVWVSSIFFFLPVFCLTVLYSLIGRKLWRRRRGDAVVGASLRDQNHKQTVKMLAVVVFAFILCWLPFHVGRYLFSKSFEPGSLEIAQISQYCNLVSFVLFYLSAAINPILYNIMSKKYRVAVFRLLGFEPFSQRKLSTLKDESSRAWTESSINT

The first test deals with human GHS-R1a (Homo sapiens (Human), UniProt Q92847). The test can be described thus: GHS-R1a binding assay, competition with 125I-ghrelin on membranes of LLC-PK1 cells expressing human GHS-R1a. Conditions: Table 4; LLCPK-1 membranes overexpressing GHS-R1a; radioiodinated (1-28) rat ghrelin as tracer; read-out: EC50 (text: IC50 values from competition curves in GHS-R1a radioreceptor assay). Here is the method:
Rat ghrelin was radio iodinated with Na^125I using the lodo-Beads iodination reagent (Pierce #28665). Briefly, an lodo-bead was incubated with 2 mCi of Na^125I (Amersham) in 100 μL of 50 mM sodium phosphate buffer, pH 7.0 for 5 min at 22° C. The reaction was started by adding 20 nmol of the peptide (1 mM in 0.1 M acetic acid). The tube was incubated for 10 min at 22° C. The iodination was terminated by adding 1 mL of 0.1% TFA. The mono-iodinated peptide was purified by reverse-phase HPLC using a Vydac C18 ([…]) column (30 cm×0.39 cm) in combination with a binary elution system of (A) 0.1% TFA in H2O and (B) 0.1% TFA, 10% H2O, 90% acetonitrile. Fractions of 0.5 mL were collected and analyzed by its radioactive content.
Cells (1.4×10^6) were plated in 100 mm plates and transfected 24 h later with pCDNA3.1-hGHS-R1a (UMR cDNA Resource Center #GHSR0A0000) following the CaHPO4 precipitation method. Briefly, 40 μg of plasmid DNA was diluted in 500 μL of sterile H2O and added to an equal volume of a 4× CaCl2, pH 7.9 solution (2 mM Tris-HCl, 0.2 mM EDTA, 500 mM CaCl2). The mixture was then added slowly with air bubbles to 1 mL of 2× Hepes-buffered saline, pH 7.1 (50 mM Hepes, 280 mM NaCl, 1.5 mM Na2HPO4). After 30 min at room temperature, 1 mL was distributed evenly over the cells and let overnight. The medium was changed the next morning and the membrane preparation was made two days later.
Cells were washed twice with PBS and once with ice-cold homogenization buffer (50 mM Tris-HCl, pH 7.3, 5 mM MgCl2, 2.5 mM EDTA, 30 μg/ml bacitracin). Cells were scraped and harvested in 1.5 mL tubes. Cells were then lysed by temperature shock with two freeze/thaw cycles in liquid nitrogen. The tubes were centrifuged at 14000 g for 20 min. Pellets were resuspended in homogenization buffer and stored at −80° C. until used. Total protein concentrations were determined with the BCA protein assay kit (Pierce).
Competition experiments were performed by incubating 50 μg of LLC-PK1 membranes expressing human GHS-R1a with 15 fmol of ^125I-Ghrelin and increasing concentrations of unlabeled ghrelin or with increasing concentrations of azapeptides derivatives in 0.5 mL of binding buffer. Bound radiolabelled ligand was separated from free by filtration on Whatman GF/C filters pretreated with a 1% polyethylenimine solution. Filters were washed with 2×3 mL of washing buffer (50 mM Tris-HCl, pH 7.3, 10 mM MgCl2, 2.5 mM EDTA, 0.015% Triton X-100). Filters were counted in a LKB gamma counter. Curves were analyzed using Prism software (GraphPad Software Inc).
For orientation: IC50 means the concentration that inhibits the measured activity by half. With `CN(NC(=O)[C@@H](Cc1c[nH]c2ccccc12)NC(=O)[C@@H](N)Cc1cnc[nH]1)C(=O)N[C@@H](Cc1c[nH]c2ccccc12)C(=O)N[C@H](Cc1ccccc1)C(=O)N[C@@H](CCCCN)C(N)=O` [DBG145, His-D-Trp-azaAla-Trp-D-Phe-Lys-NH2] (H-H[dW][AzaAla]W[dF]K-NH2), the 50% inhibitory concentration (IC50) worked out at 0.809 µM.

For the molecule `CN(NC(=O)[C@@H](Cc1c[nH]c2ccccc12)NC(=O)CC1CNc2ccccc21)C(=O)N[C@@H](Cc1c[nH]c2ccccc12)C(=O)N[C@H](Cc1ccccc1)C(=O)N[C@@H](CCCCN)C(N)=O` (stereo partly drawn) [DBG168-8, In—CO-D-Trp-azaAla-Trp-D-Phe-Lys-NH2] (X5-[dW][AzaAla]W[dF]K-NH2), the IC50 is 0.514 µM.

As for `C[C@H](NC(=O)[C@@H](Cc1c[nH]c2ccccc12)NC(=O)[C@@H](N)Cc1cnc[nH]1)C(=O)NN(Cc1ccc(-c2ccccc2)cc1)C(=O)N[C@H](Cc1ccccc1)C(=O)N[C@@H](CCCCN)C(N)=O` [DBG253-3, His-D-Trp-Ala-azaBip-D-Phe-Lys-NH2] (H-H[dW]A[X4][dF]K-NH2), the IC50 came to 1.34 µM.

For the molecule `C[C@H](NC(=O)[C@@H](Cc1c[nH]c2ccccc12)NC(=O)[C@@H](N)Cc1cnc[nH]1)C(=O)NN(Cc1cccc2ccccc12)C(=O)N[C@H](Cc1ccccc1)C(=O)N[C@@H](CCCCN)C(N)=O` [DBG253-6, His-D-Trp-Ala-azaNal-1-D-Phe-Lys-NH2] (H-H[dW]A[X3][dF]K-NH2), the concentration for half-maximal inhibition (IC50) was 0.723 µM.

Still in this test, the particulars now being: Table 5; read-out: IC50 Binding GHS-R1a.
`C[C@H](NC(=O)N(Cc1ccccc1)NC(=O)[C@@H](N)Cc1cnc[nH]1)C(=O)N[C@@H](Cc1c[nH]c2ccccc12)C(=O)N[C@H](C)C(=O)N[C@@H](CCCCN)C(N)=O` [CP-1A(ii), His-azaPhe-Ala-Trp-D-Ala-Lys-NH2] (H-H[azaPhe]AW[dA]K-NH2): the 50% inhibitory concentration (IC50) is more than 10 µM.

Turning to `C[C@H](NC(=O)[C@H](C)NC(=O)N(Cc1ccc(O)cc1)NC(=O)[C@@H](N)Cc1cnc[nH]1)C(=O)N[C@H](Cc1ccccc1)C(=O)N[C@@H](CCCCN)C(N)=O` [CP-1B(iii), (D/L)His-azaTyr-Ala-Ala-D-Phe-Lys-NH2] (H-H[azaTyr]AA[dF]K-NH2), the IC50 was more than 10 µM.

For `C[C@H](NC(=O)[C@@H](Cc1ccccc1)NC(=O)[C@H](Cc1c[nH]c2ccccc12)NC(=O)NNC(=O)[C@@H](Cc1c[nH]c2ccccc12)NC(=O)[C@@H](N)Cc1cnc[nH]1)C(N)=O` [CP-2A(i), His-D-Trp-azaGly-Trp-D-Phe-Ala-NH2] (H-H[dW][azaGly]W[dF]A-NH2), the IC50 was found to be 45 µM.

As to `C[C@@H](NC(=O)[C@H](Cc1c[nH]c2ccccc12)NC(=O)NNC(=O)[C@@H](Cc1c[nH]c2ccccc12)NC(=O)[C@@H](N)Cc1cnc[nH]1)C(=O)N[C@@H](CCCCN)C(N)=O` [CP-2A(ii), His-D-Trp-azaGly-Trp-D-Ala-Lys-NH2] (H-H[dW][azaGly]W[dA]K-NH2), the 50% inhibitory concentration (IC50) was more than 10 µM.

`C[C@H](NC(=O)NNC(=O)[C@@H](Cc1c[nH]c2ccccc12)NC(=O)[C@@H](N)Cc1cnc[nH]1)C(=O)N[C@H](Cc1ccccc1)C(=O)N[C@@H](CCCCN)C(N)=O` [CP-2A(iii), His-D-Trp-azaGly-Ala-D-Phe-Lys-NH2] (H-H[dW][azaGly]A[dF]K-NH2): the IC50 was more than 10 µM.

With `C[C@@H](NC(=O)[C@@H](N)Cc1cnc[nH]1)C(=O)NNC(=O)N[C@@H](Cc1c[nH]c2ccccc12)C(=O)N[C@H](Cc1ccccc1)C(=O)N[C@@H](CCCCN)C(N)=O` [CP-2A(iv), His-D-Ala-azaGly-Trp-D-Phe-Lys-NH2] (H-H[dA][azaGly]W[dF]K-NH2), the IC50 was more than 10 µM.

`CC(C)CN(NC(=O)[C@@H](C)NC(=O)[C@@H](N)Cc1cnc[nH]1)C(=O)N[C@@H](Cc1c[nH]c2ccccc12)C(=O)N[C@H](Cc1ccccc1)C(=O)N[C@@H](CCCCN)C(N)=O` [CP-2B (iv), His-D-Ala-azaLeu-Trp-D-Phe-Lys-NH2] (H-H[dA][azaLeu]W[dF]K-NH2): the IC50 was more than 10 µM.

As to `C[C@H](NC(=O)[C@@H](C)NC(=O)[C@@H](N)Cc1cnc[nH]1)C(=O)NN(Cc1ccccc1)C(=O)N[C@H](Cc1ccccc1)C(=O)N[C@@H](CCCCN)C(N)=O` [CP-3 (iii), His-D-Ala-Ala-azaPhe-D-Phe-Lys-NH2] (H-H[dA]A[azaPhe][dF]K-NH2), the IC50 was more than 10 µM.

Consider `C[C@H](N)C(=O)N[C@H](Cc1c[nH]c2ccccc12)C(=O)N[C@@H](C)C(=O)NN(Cc1ccccc1)C(=O)N[C@H](Cc1ccccc1)C(=O)N[C@@H](CCCCN)C(N)=O` [CP-3 (iv), Ala-D-Trp-Ala-AzaPhe-D-Phe-Lys-NH2] (H-A[dW]A[azaPhe][dF]K-NH2), for which the IC50 was more than 10 µM.

As to `C[C@H](NC(=O)[C@@H](Cc1ccccc1)NC(=O)N(Cc1ccccc1)NC(=O)[C@H](C)NC(=O)[C@@H](Cc1c[nH]c2ccccc12)NC(=O)[C@@H](N)Cc1cnc[nH]1)C(N)=O` [CP-3(i), His-D-Trp-Ala-AzaPhe-D-Phe-Ala-NH2] (H-H[dW]A[azaPhe][dF]A-NH2), the IC50 is more than 10 µM.

As to `C[C@H](NC(=O)[C@@H](Cc1c[nH]c2ccccc12)NC(=O)[C@@H](N)Cc1cnc[nH]1)C(=O)NN(Cc1ccccc1)C(=O)N[C@H](C)C(=O)N[C@@H](CCCCN)C(N)=O` [CP-3(ii), His-D-Trp-Ala-azaPhe-D-Ala-Lys-NH2] (H-H[dW]A[azaPhe][dA]K-NH2), the 50% inhibitory concentration (IC50) was more than 10 µM.

For the molecule `NCCCC[C@H](NC(=O)[C@@H](Cc1ccccc1)NC(=O)[C@H](Cc1c[nH]c2ccccc12)NC(=O)N1CCCN1C(=O)[C@@H](Cc1c[nH]c2ccccc12)NC(=O)[C@@H](N)Cc1cnc[nH]1)C(N)=O` [CP-AP_4, His-D-Trp-azaPro-Trp-D-Phe-Lys-NH2] (H-H[dW][azaPro]W[dF]K-NH2), the concentration for half-maximal inhibition (IC50) is more than 10 µM.

Consider `NCCCC[C@H](NC(=O)[C@@H](Cc1ccccc1)NC(=O)C1CCCN1C(=O)NNC(=O)[C@@H](Cc1c[nH]c2ccccc12)NC(=O)[C@@H](N)Cc1cnc[nH]1)C(N)=O` (stereo partly drawn) [CP-AzaGly-Pro, His-D-Trp-azaGly-Pro-D-Phe-Lys-NH2], for which the half-inhibitory concentration (IC50) is more than 10 µM.

The values above are taken from patent publication US9708370B2, “Azapeptides as CD36 binding compounds” (VALORISATION-RECHERCHE, LIMITED PARTNERSHIP, priority 2007, dated 2017).
